# Results reported in PubChem BioAssay (NCI).
#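 The concentration for 50% growth inhibition is given as GI50. The concentration for full growth arrest is given as TGI.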
# Assays:
# Assay in all cases: inhibition of tumour cell growth, NCI panel, 384-well format
# SR leukemia = tested on: SR leukemia
# LOX IMVI melanoma = tested on: LOX IMVI melanoma
# SN12C renal = tested on: SN12C renal
# HS 578T breast = tested on: HS 578T breast
# UO-31 renal = tested on: UO-31 renal
# UACC-62 melanoma = tested on: UACC-62 melanoma
# SF-268 CNS = tested on: SF-268 CNS
# UACC-257 melanoma = tested on: UACC-257 melanoma
# SF-295 CNS = tested on: SF-295 CNS
# MDA-MB-435 melanoma = tested on: MDA-MB-435 melanoma
# NCI-H322M lung = tested on: NCI-H322M lung
# KM12 colon = tested on: KM12 colon
# MDA-MB-468 breast = tested on: MDA-MB-468 breast
compound,measurement,setting,value
NC(=O)c1cccc2cn(-c3ccc([C@@H]4CCCNC4)cc3)nc12,GI50,SR leukemia,0.805 µM
same,TGI,SR leukemia,2.18 µM
same,GI50,LOX IMVI melanoma,7.47 µM
same,TGI,LOX IMVI melanoma,19.9 µM
same,TGI,SN12C renal,> 43.4 µM
same,GI50,HS 578T breast,10.1 µM
same,TGI,HS 578T breast,21.9 µM
same,GI50,UO-31 renal,14 µM
same,TGI,UO-31 renal,27.7 µM
same,GI50,UACC-62 melanoma,12 µM
same,TGI,UACC-62 melanoma,24.5 µM
same,GI50,SF-268 CNS,5.24 µM
same,TGI,SF-268 CNS,20.1 µM
same,GI50,UACC-257 melanoma,16.8 µM
same,TGI,UACC-257 melanoma,30.6 µM
same,GI50,SF-295 CNS,2.64 µM
same,TGI,SF-295 CNS,7.79 µM
same,GI50,MDA-MB-435 melanoma,17.5 µM
same,TGI,MDA-MB-435 melanoma,33.6 µM
same,GI50,NCI-H322M lung,18.2 µM
same,TGI,NCI-H322M lung,34.1 µM
same,GI50,KM12 colon,14.7 µM
same,TGI,KM12 colon,28.9 µM
same,GI50,MDA-MB-468 breast,1.49 µM
same,TGI,MDA-MB-468 breast,4.17 µM
